According to paper PMC6100073, “Activation of Anthracene Endoperoxides in Leishmania and Impairment of Mitochondrial Functions” (Molecules : A Journal of Synthetic Chemistry and Natural …, 2018):

Assays:
LtP [1] = assay: Uncoupling of LtP respiration in presence of oligomycin (OxoPlates); type: cell-based, Leishmania tarentolae; conditions: 38 µM Oligo
Procedure: The uncoupling experiments using OxoPlates were carried out in analogy to oxygen consumption measurements of LtP. An oligomycin (Oligo) premix in aBHI was prepared leading to a final concentration of 38 µM oligomycin (Oligo). Each well of the second row was filled with 50 µL of aBHI. From the third row on, each well was filled with 50 µL of the Oligo premix and to the fourth row additional 50 µL Oligo premix was added. The respective amounts of the substances (Ac, AQ, AcEP1117, AcEP1118, AcEP1129, AcEP1130, CCCP) were added and a serial 1:2 dilution was performed. Measurements were carried out as described above. The oxygen consumption rates were normalized to the wells that contained only LtP. For each concentration measurements were done in triplicates.

LtP [2] = assay: EPR (CMH oxidation): superoxide formation in LtP; type: cell-based, Leishmania tarentolae; conditions: 20 µM AA or 100 µM other compounds, 500 × 10^6 LtP/mL, 400 µM CMH, DFO, DTPA, 5 min, 25 °C
Procedure: To measure superoxide radical (O2^•−) formation induced by AcEPs in LtP, EPR spectroscopy was used. An aliquot of the cell broth was transferred into an Eppendorf tube that was centrifuged (Hettich Universal 16, 20 °C, 2000× g, 10 min). The supernatant was discarded, the cell pellet was resuspended in PBS and centrifuged again. After removal of the supernatant, the cell pellet was resuspended in a mixture of PBS, 15 mM glucose (PBS/Glu), DFO (100 µM), and DTPA (25 µM). […] The cell suspension was aliquoted. CMH was added as detection agent leading to a final concentration of 400 µM. After 5 min of incubation at 25 °C, the respective substance was added resulting in final concentrations of 20 µM antimycin A (AA) or 100 µM of AcEP1117, AcEP1118, AcEP1129, AcEP1130, Ac, and AQ. Samples containing LtP and CMH were used as negative control. Samples containing PBS/Glu and CMH were used as negative control as well. After 5 min of incubation at 25 °C with the respective substance, aliquots of 17 µL of the cell suspensions were aspirated into a PTFE tube (outer diameter 0.7 mm). The tube was transferred into the MD5 resonator of the EPR spectrometer. Immediately, the measurement was started using the following parameters: microwave frequency 9.684 GHz; microwave power 20 mW, modulation frequency 100 kHz; modulation amplitude 1 G; time constant 0.82 s; center field 3449 G; scan rate 14 G/min; sweep width 100 G; scan time 419 s; attenuation 2.52 × 10^4; and scans 5.

[3] = Xylenol orange assay: reaction of endoperoxides with Fe2+; conditions: 50 µM compound, 250 µM FeSO4, 125 µM xylenol orange, methanol/H2O (9:1 v/v)
Procedure: Xylenol orange (XO) (125 µM) and butylated hydroxytoluene (4 mM) were dissolved in methanol/H2O (9:1, v/v). FeSO4 (25 mM) in 2.5 M H2SO4 was prepared immediately before use and added, giving a final concentration of 250 µM FeSO4 in the samples. An aliquot of 100 µL EP solution (final concentration of 50 µM) was transferred into a disposable 1.5 mL cuvette (BRAND, Wertheim, Germany), and 1 mL of the color reagent was added. […] At these time points, the OD difference of the sample at 560 nm and 650 nm was determined using a MS1501 UV-vis diode array spectrophotometer (Shimadzu, Japan). As reference, a mixture of methanol/H2O (9:1, v/v) was used. […] The slope of the reaction rate was calculated using an extinction coefficient of the complex of 1.5 × 10^4 M^−1 cm^−1.

LtP [4] = assay: EPR spin trapping (DMPO): activation of AcEPs by LtP; type: cell-based, Leishmania tarentolae; conditions: 500 µM compound, 2 × 10^9 LtP/mL, 40 mM DMPO, 15 min, no added iron
Procedure: To detect the radicals derived from AcEPs in LtP, EPR experiments were performed using DMPO as spin trap. Aliquots of the cell broth were transferred into Sarstedt tubes that were centrifuged (20 °C, 1800× g, 10 min), and the supernatants were discarded. Then the cell pellets were resuspended in PBS and centrifuged again. After removal of the supernatants, the cell pellets were resuspended in a mixture of PBS containing glucose (15 mM), giving a final cell number of 2 × 10^9 LtP/mL. Aliquots (150 µL) were incubated in 1.5 mL Eppendorf tubes with aeration holes. The cells were incubated with DMPO (40 mM) for 5 min at 26 °C, and after addition of 500 µM of the respective substance (Asc, AcEP1117, AcEP1118, AcEP1129, AcEP1130, Ac or AQ), the samples were incubated for additional 15 min at 26 °C under constant agitation (agitation speed: 0.3 s^−1). Control samples containing LtP, LtP and DMSO (1.27%, v/v), or PBS/glucose alone were incubated with 40 mM DMPO under the same conditions. Cell samples containing DMPO that were treated with Asc served as positive control. Samples treated with Ac or AQ were used as negative controls. Subsequently, 50 µL of the samples were aspirated into glass capillaries and transferred in the MD5 resonator of the EPR spectrometer. The samples were measured immediately using the following instrument settings: microwave frequency 9.684 GHz; microwave power 20 mW, modulation frequency 100 kHz; modulation amplitude 2 G; time constant 0.164 s; center field 3449 G; scan rate 71 G/min; sweep width 100 G; scan time 84 s; attenuation 8.93 × 10^5; and scans 3.

CC[C@H]1/C=C/C=C/C[C@@H](C)[C@H](O)[C@@](C)(O)C(=O)[C@@H](C)[C@H](O)[C@@H](C)C(=O)[C@@H](C)[C@H](O)[C@@H](C)/C=C/C(=O)O[C@@H]2[C@H](C)[C@H](CC1)O[C@]1(CC[C@H](C)[C@H](C[C@@H](C)O)O1)[C@H]2C [Oligo, oligomycin]
oxygen consumption rate compared to untreated LtP (LtP [1]; 140 × 10^6 LtP/mL): about 60%

CCCCCC[C@H]1C(=O)O[C@H](C)[C@H](NC(=O)c2cccc(NC=O)c2O)C(=O)O[C@@H](C)[C@@H]1OC(=O)CC(C)C [AA, antimycin A, reference compound]
CMH oxidation (superoxide radical formation) in LtP (LtP [2]): triggered additional CMH oxidation in LtP

N#CC(C#N)=NNc1cccc(Cl)c1 [CCCP, carbonyl cyanide m-chlorophenylhydrazone]
uncoupling effect (recovery of O2 consumption in the presence of Oligo) (LtP [1]; 0.31–5.0 µM CCCP or 12.5–200.0 µM other compounds): a recovery of O2 consumption in the presence of Oligo was observed

CC(C)C12C=CC(C)(CC1)OO2 (centres unmarked) [Asc, ascaridole, reference compound]
Slope (nM·min^−1) Mean ± SD of XO/Fe^3+ complex formation [3]: 608 ± 52 nM/min | DMPO spin adduct formation in LtP (EPR) (LtP [4]): showed DMPO spin adducts of carbon-centered radicals
